The experiment relates to passive sensitised guinea pig lung parenchyma strips. As to the kind of experiment: Inhibition of the antigen-caused constriction of passive sensitised guinea pig lung parenchyma strips in vitro (organ bath). The class given is cell-based. The note with it: Cavia porcellus, 20 min, ovalbumin 0.1 μg/ml, 20 min/37°C. preincubation, read-out: % Inhibition of the constriction of passive-sensitised lung parenchyms strips (guinea pigs) induced by ovalbumin; for inhibition at 10 µg/mL: 10 μg/ml substance. The procedure:
Inhibition of the antigen-caused construction of passive sensitised guinea pig lung parenchyma strips in vitro (organ bath)
For the in vitro investigation of the compounds according to the invention, the inhibition of the antigen-caused constriction of passive sensitised guinea pig lung parenchyma strips was measured, as described in the following:
Pirbright white guinea pigs were stunned by a blow to the nape of the neck and exsanguinated. The lungs were rinsed substantially blood-free in situ with Krebs buffer, pH 7.4. Subsequently, the lungs were removed, cut up into strips (about […]) and the strips passively sensitised for one hour at room temperature with a 1.:50 dilution of a homologous anti-ovalbumin antiserum and then washed with Krebs buffer 1 x. The antiserum had been previously produced according to DAVIES (1) in guinea pigs of the same strain by repeated injection of ovalbumin (2 x crystallised) with addition of complete Freund's adjuvant. Until its used the antiserum was stored undiluted at -18° C. Subsequently, the lung strips were individually suspended on an isometric measurement sensor in 10 ml waterbaths with an initial tension of 1.2 g. Thereafter, the baths were filled with Krebs buffer and continuously gassed at 37° C. with O2 (95%) and CO2 (5%). Via an amplifier the constrictions of the lung strips were recorded on a recorder. After 30 minutes acclimatisation phase, histamine control spasms were produced for the recognition of the reactivity of the organ pieces washed, subsequently the best substance preincubated 37° C. for 20 minutes and thereafter the ovalbumin-caused constriction initiated. The inhibition action of the compounds according to the invention was expressed as percentage reduction of the constriction amplitude of the "samples with best substance" in relation to the "untreated control constrictions".

The inhibition is the share of the control response that was lost under treatment. In the case of `c1ccn2c(=NC3=NCCS3)snc2c1` [Example 2u, 3-(4,5-dihydrothiazol-2-ylimino)-3H-[1,2,4]-thia-diazolo [4,3-a]pyridine], the inhibition at 10 µg/mL came out at 78%.
The same measure, in the same setting: to `COc1ccc(N=c2snc3ccccn23)cc1` [Example 2e, 3-(4-methoxyphenylimino)-3H-[1,2,4]-thiadiazolo-[4,3-a]pyridine] belongs 48%; to `Clc1ccc2nsc(=Nc3ccncc3)n2c1` [Example 4], 61%.
For the compound `c1ccc(N=c2snc3ccccn23)nc1` [Example 2a, 3-(2-pyridinylimino)-3H-[1,2,4]-thiadiazolo [4,3-a]-pyridine], the inhibition at 10 µg/mL is 56%.
On the same count and under the same terms, in the case of `c1ccn2c(=Nc3ccncc3)snc2c1` [Example 2b, 3-(4-pyridinylimino)-3H-[1,2,4]-thiadiazolo [4,3-a]-pyridine] it was 80%.
In the case of `Cn1c(=O)c2[nH]cnc2n(C)c1=O` [aminophylline, reference compound], the inhibition at 200 µg/mL (200 μg/ml substance (footnote +)) is 26%.
In the case of `CN(O)C(=O)Cc1ccc(N=c2snc3ccccn23)cc1` [Example 9, 4-(3H-[1,2,4]-Thiadiazole[4,3-a]-pyridin-3-ylideneamino)-phenylacetic acid N-methylhydroxamide], the inhibition at 10 µg/mL came to 61%.
Same read-out and setting: to `Cc1cc(O)ccc1N=c1snc2ccccn12` [Example 2p, 3-(4-hydroxy-2-methyl-phenylimino)-3H-[1,2,4]-thiadiazolo [4,3-a]-pyridine] belongs 62%.
On the same count and under the same terms, to `c1ccn2c(=Nc3ccc4c(c3)OCO4)snc2c1` [Example 2q, 3-(3,4-methylenedioxyphenyl-imino)-3H-[1,2,4]-thiadia-zolo [4,3-a]-pyridine] belongs 57%.

Values taken from patent US5447934A, “Anti-allergic thiadiazolo [4,3-a]pyridine derivatives” (Boehringer Mannheim GmbH, priority 1991, dated 1995).
